Measurements: article PMC10530836, “Synthesis, Molecular Docking, and Biological Evaluation of Novel Anthranilic Acid Hybrid and Its Diamides as Antispasmodics” (International Journal of Molecular Sciences, 2023)
Where two headings read alike, the source gives them in different places.

What was measured:
[1] = test system: Enterococcus faecalis ATCC 29212; assay: Antimicrobial activity, agar well diffusion; format: cell-based; conditions: Dose 0.6 mg/disk, dwell = 6 mm
Aspergillus flavus = assay: Antimicrobial activity, agar well diffusion; format: cell-based; conditions: Dose 0.6 mg/disk, dwell = 6 mm
Text: (§1) Twenty tested microorganisms including six Gram-positive bacteria (Bacillus subtilis ATCC 6633, Bacillus amyloliquefaciens 4BCL-YT, Staphylococcus aureus ATCC 25923, Listeria monocytogenes NBIMCC 8632, Enterococcus faecalis ATCC 19433), six Gram-negative bacteria (Salmonella enteritidis ATCC 13076, Klebsiella sp.—clinical isolate, Escherichia coli ATCC 25922, Proteus vulgaris ATCC 6380, Pseudomonas aeruginosa ATCC 9027), two yeasts (Candida albicans NBIMCC 74, Saccharomyces cerevisiae ATCC 9763), and six fungi (Aspergillus niger ATCC 1015, Aspergillus flavus, Penicillium sp., Rhizopus sp., Mucor sp.—plant isolates, Fusarium moniliforme ATCC 38932) from the collection of the Department of Microbiology at the University of Food Technologies—Plovdiv, Bulgaria, were selected for the antimicrobial activity test. The antimicrobial activity of the samples was determined by the agar well diffusion method. The tested bacteria B. subtilis and B. amyloliquefaciens were cultured on LBG agar at 30 °C. The test bacteria S. aureus, L. monocytogenes, E. faecalis, S. enteritidis, Klebsiella sp., E. coli, P. vulgaris, and P. aeruginosa were cultured on LBG agar at 37 °C for 24 h. The yeast C. albicans was cultured on MEA at 37 °C, while S. cerevisiae was cultured on MEA at 30 °C for 24 h. The fungi A. niger, A. flavus, Penicillium sp., Rhizopus sp., Mucor sp., and F. moniliforme were grown on MEA at 30 °C for 7 days or until sporulation. The inocula of the tested bacteria/yeasts was prepared by homogenization of a small amount of biomass in 5 mL of sterile 0.5% NaCl. The inocula of tested fungi were prepared by the addition of 5 mL of sterile 0.5% NaCl into the tubes. After stirring by vortex V-1 plus (Biosan), they were filtered and replaced in other tubes before use. The number of viable cells and fungal spores was determined using a bacterial counting chamber Thoma (Poly-Optik, GmbH, Bad Blankenburg, Germany). Their final concentrations were adjusted to 10^8 cfu/mL for bacterial/yeast cells and 10^5 cfu/mL for fungal spores and then inoculated in preliminarily melted and tempered at 45–48 °C LBG/MEA agar media. Next, the inoculated media were transferred in a quantity of 18 mL in sterile Petri plates (d = 90 mm) (Gosselin™, Hazebrouck, France) and allowed to harden. Then, six wells (d = 6 mm) per plate were cut, and triplicates of 60 μL of each extract were pipetted into the agar wells. The Petri plates were incubated in identical conditions. The antimicrobial activity was determined by measuring the diameter of the inhibition zones around the wells on the 24th and 48th h of incubation. Tested microorganisms with inhibition zones of 18 mm or more were considered sensitive; moderately sensitive were those in which the zones were from 12 to 18 mm; resistant were those in which the inhibition zones were up to 12 mm or completely missing.

[2] = test system: Aspergillus niger ATCC 1015; assay: Antimicrobial activity, agar well diffusion; format: cell-based; conditions: Dose 0.6 mg/disk, dwell = 6 mm
Text: as §1

[3] = test system: Bacillus subtilis ATCC 6633; assay: Antimicrobial activity, agar well diffusion; format: cell-based; conditions: Dose 0.6 mg/disk, dwell = 6 mm
Text: as §1

[4] = test system: Escherichia coli ATCC 25922; assay: Antimicrobial activity, agar well diffusion; format: cell-based; conditions: Dose 0.6 mg/disk, dwell = 6 mm
Text: as §1

[5] = test system: Listeria monocytogenes NBIMCC 8632; assay: Antimicrobial activity, agar well diffusion; format: cell-based; conditions: Dose 0.6 mg/disk, dwell = 6 mm
Text: as §1

[6] = test system: Micrococcus luteus 2YC-YT; assay: Antimicrobial activity, agar well diffusion; format: cell-based; conditions: Dose 0.6 mg/disk, dwell = 6 mm
Text: as §1

Penicillium chrysogenum = assay: Antimicrobial activity, agar well diffusion; format: cell-based; conditions: Dose 0.6 mg/disk, dwell = 6 mm
Text: as §1

[7] = test system: Proteus vulgaris ATCC 6380; assay: Antimicrobial activity, agar well diffusion; format: cell-based; conditions: Dose 0.6 mg/disk, dwell = 6 mm
Text: as §1

[8] = test system: Pseudomonas aeruginosa ATCC 9027; assay: Antimicrobial activity, agar well diffusion; format: cell-based; conditions: Dose 0.6 mg/disk, dwell = 6 mm
Text: as §1

Rhizopus sp. = assay: Antimicrobial activity, agar well diffusion; format: cell-based; conditions: Dose 0.6 mg/disk, dwell = 6 mm
Text: as §1

[9] = test system: Salmonella enteritidis ATCC 13076; assay: Antimicrobial activity, agar well diffusion; format: cell-based; conditions: Dose 0.6 mg/disk, dwell = 6 mm
Text: as §1

[10] = test system: Salmonella typhimurium NBIMCC 1672; assay: Antimicrobial activity, agar well diffusion; format: cell-based; conditions: Dose 0.6 mg/disk, dwell = 6 mm
Text: as §1

MTT cell viability assay [11] = format: cell-based; conditions: human, 72 h exposure, ± SD, read-out: In vitro cytotoxicity IC50
Procedure: (§2) To evaluate the biocompatibility of the hybrid compounds, their in vitro antiproliferative activity was assessed in a panel of human malignant cell lines of different origin (K-562 and LAMA-84 suspension-growing myeloid leukemia cells, positive for the Philadelphia chromosome, and the urothelial bladder carcinoma cell line T-24 of adherent type). Non-malignant murine fibroblast cells (CCL-1) were also used as a screening platform. All cell lines were purchased from the German Collection of Microorganisms and Cell Cultures (DSMZ GmbH, Braunschweig, Germany). Cell cultures were cultivated in a growth medium RPMI 1640 supplemented with 10% fetal bovine serum (FBS), and 5% L-glutamine and were incubated under standard conditions of 37 °C and 5% humidified CO2 atmosphere. The effects of the newly synthesized anthranilic derivatives on cell viability were measured using a validated colorimetric assay for evaluating cell viability, known as the Mosmann MTT method. Exponential-phased cells were harvested and seeded (100 μL/well) in 96-well plates at the appropriate density (3 × 10^5 for the suspension cultures LAMA-84 and K-562 and 1.5 × 10^5 for the adherent T-24 and CCL-1 cells). Following a 24 h incubation, cells were treated with various concentrations of the experimental compounds in the concentration range of 200–12.5 μM. After an exposure time of 72 h, filter-sterilized MTT substrate solution (5 mg/mL in PBS) was added to each well of the culture plate. A further 2–4 h incubation allowed for the formation of purple insoluble formazan crystals. The latter was dissolved in isopropyl alcohol solution containing 5% formic acid prior to absorbance measurement at 550 nm. Collected absorbance values were blanked against MTT and isopropanol solution and normalized to the mean value of untreated control (100% cell viability).

MTT cell viability assay [12] = format: cell-based, murine; conditions: mouse, CCL-1 normal fibroblast cells (adherent); CCL-1, MTT, 72 h exposure, ± SD; read-out: In vitro cytotoxicity IC50
Procedure: as §2

[13] = test system: Bacillus amyloliquefaciens 4BCL-YT; assay: Antimicrobial activity, agar well diffusion; format: cell-based; conditions: Dose 0.6 mg/disk, dwell = 6 mm
Text: as §1

[14] = test system: Staphylococcus aureus ATCC 25923; assay: Antimicrobial activity, agar well diffusion; format: cell-based; conditions: Dose 0.6 mg/disk, dwell = 6 mm
Text: as §1

[15] = K-562 myeloid leukemia cells (suspension), K-562, MTT
[16] = LAMA-84 myeloid leukemia cells (suspension), LAMA-84, MTT
[17] = T-24 urothelial bladder carcinoma cells (adherent), T-24, MTT

CC(=O)Nc1ccccc1C(=O)NCCc1cccc(Cl)c1 [Compound 4a, 2-acetamido-N-(3-chlorophenethyl)benzamide]
Inhibition Zones [1]: 12 mm | Inhibition Zones (Aspergillus flavus): 8 mm | Inhibition Zones [2]: 10 mm | Inhibition Zones [3]: 8 mm | Inhibition Zones [4]: 9 mm | Inhibition Zones [5]: 8 mm | Inhibition Zones [6]: 10 mm | Inhibition Zones (Penicillium chrysogenum): 13 mm | Inhibition Zones [7]: 8 mm | Inhibition Zones [8]: 9 mm | Inhibition Zones (Rhizopus sp.): 8 mm | Inhibition Zones [9]: 12 mm | Inhibition Zones [10]: 8 mm | IC50 at 72 h (MTT cell viability assay [11]; [15]): > 200 µM | IC50 at 72 h (MTT cell viability assay [11]; [16]): 112 ± 9.4 µM | IC50 at 72 h (MTT cell viability assay [11]; [17]): > 200 µM | IC50 at 72 h (MTT cell viability assay [12]): > 200 µM

O=C(Nc1ccccc1C(=O)NCCc1cccc(Cl)c1)c1ccccc1 [Compound 4b, 2-benzamido-N-(3-chlorophenethyl)benzamide]
Inhibition Zones [1]: 8 mm | Inhibition Zones (Aspergillus flavus): 13 mm | Inhibition Zones [2]: 11 mm | Inhibition Zones [13]: 10 mm | Inhibition Zones [3]: 11 mm | Inhibition Zones [4]: 11 mm | Inhibition Zones [5]: 12 mm | Inhibition Zones [6]: 15 mm | Inhibition Zones (Penicillium chrysogenum): 15 mm | Inhibition Zones [7]: 8 mm | Inhibition Zones [8]: 10 mm | Inhibition Zones (Rhizopus sp.): 11 mm | Inhibition Zones [9]: 8 mm | Inhibition Zones [10]: 8 mm | Inhibition Zones [14]: 8 mm | IC50 at 72 h (MTT cell viability assay [11]; [15]): 55.2 ± 4.7 µM | IC50 at 72 h (MTT cell viability assay [11]; [16]): 60.7 ± 5.3 µM | IC50 at 72 h (MTT cell viability assay [11]; [17]): 94.9 ± 5 µM | IC50 at 72 h (MTT cell viability assay [12]): > 200 µM

Nc1ccccc1C(=O)NCCc1cccc(Cl)c1 [Compound 3, 2-amino-N-(3-chlorophenethyl)benzamide]
Inhibition Zones [1]: 12 mm | Inhibition Zones (Aspergillus flavus): 20 mm | Inhibition Zones [2]: 20 mm | Inhibition Zones [13]: 11 mm | Inhibition Zones [3]: 12 mm | Inhibition Zones [4]: 13 mm | Inhibition Zones [5]: 12 mm | Inhibition Zones [6]: 19 mm | Inhibition Zones (Penicillium chrysogenum): 20 mm | Inhibition Zones [7]: 8 mm | Inhibition Zones [8]: 14 mm | Inhibition Zones (Rhizopus sp.): 20 mm | Inhibition Zones [9]: 12 mm | Inhibition Zones [10]: 12 mm | Inhibition Zones [14]: 8 mm | IC50 at 72 h (MTT cell viability assay [11]; [15]): 154 ± 11.1 µM | IC50 at 72 h (MTT cell viability assay [11]; [16]): 115 ± 10.5 µM | IC50 at 72 h (MTT cell viability assay [11]; [17]): 137 ± 12.5 µM | IC50 at 72 h (MTT cell viability assay [12]): > 200 µM
